From patent US9867795B2, “Nitrated lipids and methods of making and using thereof” (The UAB Research Foundation, priority 2004, dated 2018)

How the values were obtained:
[1] = •NO release from LNO2 by oxymyoglobin oxidation
Method: Apparent •NO formation was calculated from extents of oxymyoglobin oxidation in the visible wavelength range (spectrum) and at 580 nm (kinetic mode). Initial oxymyoglobin oxidation was calculated using a UV probe Version 1.10 (ε580 14.4 mM^−1 cm^−1). Decomposition of the NO2 group was followed at 268 nm and the appearance of oxidized products at 320 nm.
To monitor the concomitant decomposition of the parent LNO2 molecule, its UV spectrum was first analyzed. […] The decrease in absorbance at 268 nm paralleled •NO release, as detected by both EPR and oxymyoglobin oxidation.
(§1) The formation of •NO was followed by EPR (measuring cPTI formation) in the presence of different concentrations of octyl-β-glucopyranoside (OG) and octyl-thio-β-glucopyranoside (OTG). The rate of •NO release was constant and not influenced by these detergents until the critical micellar concentration (CMC) for each was achieved, after which •NO formation was inhibited as the volume of the hydrophobic environment increased (FIG. 24A). Similar results were obtained when measuring •NO formation via conversion of oxymyoglobin to metmyoglobin. Apparent •NO release rates remained constant until OG concentration reached ˜2.8 mg/ml (CMC=2.77 mg/ml (11)). […] The inhibition of the NO2 group loss at 268 nm was paralleled by inhibition of the formation of oxidation products at 320 nm, similarly paralleling the detergent-induced inhibition of •NO release observed by EPR and oxymyoglobin-based detection.

[2] = Hydrophobic stabilization and micellar partition of LNO2; format: physicochemical
Excerpt: as §1
Thus, a plot of 1/v vs. α will yield a linear plot with slope divided by y-axis intercept equal to K−1.

[3] = LNO2 130 μM, oxymyoglobin 20 μM

10-nitro-9,12-octadecadienoic acid and 12-nitro-9,12-octadecadienoic acid [LNO2]
apparent rate constant for •NO release ([1]; 100 mM phosphate buffer, 100 μM DTPA, pH 7.4, oxymyoglobin to metmyoglobin): 9.67e-06 s⁻¹
OG concentration up to which apparent •NO release rates remained constant [1, 3]: ~2.8 mg/mL
OTG concentration at which inhibition of LNO2-dependent •NO release occurred [1, 3]: ~7 mg/mL
partition coefficient K ([2]; FIG. 28 legend): ~1500
stability in organic solvents ([2]; organic solvents such as n-octanol): stable
